“Also recorded” adds a separate entry of the source. Where no end group is shown, it is not given here. [ ]: non-standard residue; d: D form. Nle = CCCC[C@H](N)C(=O)O
Legend:
Type in all cases: in vivo
[1] = test system: Guinea Pig Model of CRBI (200 cGy TBI combined with 18 mm burn injuries); test: NorLeu^3-A(1-7) dose-response study, survival in guinea pig model of CRBI; details: 1 μg/wound/day and above, applied to site of thermal injury daily through day 14; 200 cGy TBI + 18 mm burns
Protocol: (§1) In a subsequent study, 200 cGy TBI was combined with 18 mm burn injuries in a NorLeu^3-A(1-7) dose-response study. On the day of thermal injury and daily through day 14, various concentrations of NorLeu^3-A(1-7) (0-300 μg/day) were applied to the site of thermal injury (FIG. 3).
(§2) For these studies, male Hartley guinea pigs weighing approximately 500 grams were purchased from Charles Rivers Laboratory (Charles Rivers, Mass.). The guinea pigs were housed in a 12:12 hour, light:dark, cycle in the USC Vivaria. The animals received 200 cGy TBI using a Cesuim 137 irradiator. One to two hours thereafter, the guinea pigs received a thermal injury. The thermal injuries were produced and post-operative care performed as described in Rodgers et al., 1997a,b, 2001. Briefly, after anesthesia, two burns were produced on each guinea pig with an 18 mm diameter solid brass rod, which was warmed in a 75° C. water bath. One end of the brass rod was placed on the back of the guinea pig for 50 seconds.
Each burn was treated with 2% HEC (vehicle for topical drug application) with and without NorLeu^3-A(1-7) in 0.05 mol/L phosphate buffer, pH 6.5, and was individually dressed. Treatment was started at various times after TBI and thermal injury as indicated below.

[2] = test system: Guinea Pig Model of CRBI (200 cGy TBI combined with 18 mm burn injuries); test: Proliferating cells at the edge of the burn (immunohistochemical staining, MIB-1) in guinea pig CRBI model; details: topical, day 14, 200 cGy TBI + 18 mm burns
Protocol: as §1
For these studies, male Hartley guinea pigs weighing approximately 500 grams were purchased from Charles Rivers Laboratory (Charles Rivers, Mass.). The guinea pigs were housed in a 12:12 hour, light:dark, cycle in the USC Vivaria. The animals received 200 cGy TBI using a Cesuim 137 irradiator. One to two hours thereafter, the guinea pigs received a thermal injury. […]
On day 14 after thermal injury, the guinea pigs was euthanized, the burned areas will be excised en bloc. […] Healing was measured by the number of proliferating cells at the injury site. […]
With an Olympus Vanox-S AH-2 dissecting microscope and a magnification power of 100×, each section of the biopsy specimen was separated into either areas on the burn edge or the actual burn areas. […] In each section four to six consecutive medium-power fields (mpf, 100×) were evaluated. […] All stained cells located within the hair follicles of the biopsy sections were counted. […] Each field was then determined to be either a section on the edge of the burn or a part of the burn area itself. […]

[3] = test system: Guinea Pig Model of CRBI (200 cGy TBI and thermal injury 2 hours later); test: Time point at which treatment can be initiated, survival in guinea pig CRBI model; details: 10 or 100 μg/daily
Protocol: A second study was conducted in this model to assess the length of time that treatment can be delayed and still reduce mortality. In this study, the guinea pigs underwent 200 cGy TBI and thermal injury 2 hours later. Treatment with placebo was started on day 0. Treatment with 10 or 100 μg/daily NorLeu^3-A(1-7) was initiated on day 0, 1, 2, 3 or 4. When treatment was started at days 0, 1, 2, or 3 survival was increased to approximately 40-60% versus 14% in the placebo-treated animals (FIG. 6-9).
as §2
Each burn was treated with 2% HEC (vehicle for topical drug application) with and without NorLeu^3-A(1-7) in 0.05 mol/L phosphate buffer, pH 6.5, and was individually dressed. […]

[4] = test system: mouse model of CRBI (10 sec scald at 70 C following 600 cGy TBI); test: Apoptosis in dermal tissue by TUNEL assay in mouse thermal injury / CRBI model; details: daily 100 ul per wound at 1 mg/ml, day 7
Protocol: Mice received thermal injury only received a 7% total body surface area scald at 70 C for 10 seconds (under ketamine/xylazine anesthesia). Mice that received the combined injury received total body irradiation with a cesium irradiator at a dose of 6 Gy and 2 hours later received the same scald injury. For the data presented, the treatments were started immediately after the scald injury and the wound were bandaged with Tegaderm. Treatment was daily with 100 ul give per wound at a concentration of 1 mg/ml. The animals were euthanized on day 7. Apoptosis in the dermal tissue was measured by TUNEL assay. NorLeu3-A(1-7) provides additional systems to mitigate delayed wound healing with the involvement of radiation.

Asp-Arg-Nle-Tyr-Ile-His-Pro (DR[Nle]YIHP) [NorLeu^3-A(1-7)]
mortality associated with combined injury [1]: reduced mortality | number of proliferating cells in the hair follicle bulge at the edge of the wound ([2]; all doses (except 3 μg/wound/day)): increases proliferating cells; also recorded: increased the number of proliferating cells | number of (proliferating) cells in the basal keratinocyte layer at the edge of the burn ([2]; doses of 10 μg/daily and above): increases proliferating cells; also recorded: increase in the number of cells | effectiveness (survival) with delayed treatment ([3]; initiation of treatment delayed until day 4): effectiveness was reduced | survival ([3]; treatment started at days 0, 1, 2, or 3 after CRBI, versus 14% in placebo-treated animals): 40-60% | apoptosis in the dermis and subdermis of thermal injuries ([4]; mouse CRBI: 10 sec scald at 70 C following 600 cGy TBI): reduces apoptosis | apoptosis at the site of thermal injury alone ([4]; mouse thermal injury only (no TBI): 7% TBSA scald at 70 C for 10 seconds): not at the site of thermal injury alone

Source: US9272013B2, “Methods for treating combined radiation and thermal injury” (University of Southern California, priority 2010, dated 2016)
